SMILES strings stand for the structures.

Here are results for eight molecules from patent publication US9655869B2, “Estrogen antagonists as treatments for sclerosing disorders” (University of Pittsburgh—Of The Commonwealth System Of …, priority 2009, dated 2017).

Data set [1] deals with fibronectin (FN). Description: FN mRNA (RT-PCR) and protein (western blot) expression in primary skin fibroblasts. The data set is classed as cell-based, human. Particulars: for FN protein levels in the ECM: primary fibroblasts treated 48 hrs, PPT 100 nM, genistein 100 nM, western blot; for E2-mediated increase of FN protein: skin fibroblasts pre-treated with inhibitor 1 hr prior to E2, western blot 48 hrs post-treatment, cellular lysates. On the procedure: Skin-punch biopsies (6 mm) were obtained with informed consent from the clinically affected and unaffected skin of 6 patients with SSc and 5 healthy twins. All SSc patients had diffuse skin involvement and met the American College of Rheumatology criteria for the diagnosis of SSc (1). Biopsies were performed on the leading edge of dermal thickening and clinically normal skin. The skin samples were minced, placed in 60-mm tissue culture dishes and cultured at 37° C. in a humidified atmosphere in Dulbecco's modified Eagle's medium (DMEM) (Cellgro, Herndon, Va.) supplemented with 10% fetal bovine serum (FBS; Sigma-Aldrich, St. Louis, Mo.), 100 IU/ml penicillin, and 100 μg/ml streptomycin (Invitrogen, Carlsbad, Calif.). Skin fibroblasts (2×10^5 cells per well) were seeded in 35 mm cell culture dishes in DMEM/10% FBS. The following day, the medium was replaced with phenol-red free DMEM (Cellgro) without serum for 24 hours to deprive the cells of estrogen. […] Sigma-Aldrich) for 24 hours (for RNA extraction) or 48 hours (for protein extraction). TGF-β (10 ng/ml; R&D systems, Minneapolis, Minn.) was used as a positive control. […] Cell Signaling Technology, Beverly, Mass.) were added where indicated. To determine the role of ERα and β on FN individually, cells we cultured with propyl-pyrazole-triol (PPT), an ERα specific ligand (100 nM; Tocris), and genistein, an ERβ specific ligand (100 nM; […] Extracellular matrix (ECM) was extracted as we have previously described. (35) Briefly, cells were rinsed with PBS and incubated with 8M Urea in PBS for 20 mins. Cells were aspirated and the ECM was rinsed three times with PBS. ECM was scraped in 100 μl sample buffer (20 mM dithiothreitol, 6% SDS, 0.25 M Tris, pH 6.8, 10% glycerol, 10 mM NaF and bromophenyl blue) and analyzed by western blot. Skin fibroblasts in early passage (passages 3-4) were harvested and RNA was extracted using TRIzol (Invitrogen). mRNA was reverse transcribed using Superscript II (Invitrogen) following the manufacturer's recommendations. The cDNA generated was used as a template for amplification by PCR with primers specific for ERα [NT] ID NO:1) and […] NO:2), ERβ […] NO:3) and [NT] ID NO:4), Fibronectin, [NT] ID NO:5) and 5-[…] ID NO:6) and β-actin, […] NO:7) and [NT] ID NO:8). PCR amplification was performed in a 50 μl reaction containing 10 units of the reverse transcription reaction, Taq DNA polymerase (Invitrogen), 10×PCR buffer (750 mM Tris-HCl, pH8.8, 200 mM (NH4)2SO4 and 0.1% Tween 20), 1.5 mM MgSO4, 1 mM of each deoxynucleotide triphosphate in a Peltier Thermal Cycler-200 (MJ Research, Waltham, Mass.). Conditions were an initial denaturation at 95° C. for 4 min, followed by 35 cycles of 94° C. for 45 sec, 55° C. for 30 sec, and 68° C. for 2 min. Final extension was at 68° C. for 5 min. 20 μl of each reaction was electrophoresed on a 1% agarose gel in 1×TAE (Tris/acetate/EDTA) buffer and products were visualized following staining with ethidium bromide. Molecular weight of each PCR product: ERα 1062 bp, ERβ 934 bp, FN 513 bp and β-actin 494 bp. Cells were grown to confluency in 35 mm culture dishes. Cells were rinsed with 1×PBS and scraped in sample buffer (20 mM dithiothreitol, 6% SDS, 0.25 M Tris, pH 6.8, 10% glycerol, 10 mM NaF and bromophenyl blue). Samples were separated by electrophoresis on 8% SDS-polacrylamide gels (National Diagnostic, Atlanta, Ga.) and transferred to nitrocellulose membranes. […] Immunoreactive proteins were detected by chemiluminescence (PerkinElmer Life Sciences, Boston, Mass.), followed by autoradiography.
On the technique in general: Immunoblotting shows a protein as a band on a membrane.

Data set [2] deals with human skin. Description: ex vivo human skin organ culture: dermal and collagen bundle thickness. Particulars: explanted human skin, 7 days; for collagen bundle thickness, ratio compared with vehicle / dermal thickness, ratio compared with vehicle: p<0.05, 3 experiments. On the procedure:
Dermal and collagen bundle thickness were measured in skin sections stained with hematoxylin and eosin.
Dermal thickness was defined as the distance from the granular layer to the junction between the dermis and subcutaneous fat. Images were taken on a Nikon Eclipse 800 microscope (Nikon Instruments, Inc., Huntley, Ill.) using identical camera settings and Image was used to measure thickness. Thickness was measured in 5 random fields in each sample.
(§1) To further examine the effect of estradiol in skin tissues, dermal and collagen bundle thickness in dermis were assessed using an ex vivo organ culture system. Ex-planted skin tissues on 35-mm well plates were treated with estradiol, estrogen receptor alpha or beta agonists (PPT, genistein, respectively) or vehicles (ethanol for estraditol, PPT, DMSO for genistein, respectively) for 7 days, and skin sections were stained with hematoxylin and eosin. […] We also assessed the extent of deposition of fibronectin using immunohistochemistry. […] Thus, estradiol is an important factor for the induction of skin fibrosis, and the effect of estradiol is mediated by estrogen receptor alpha.

Data set [3] deals with ERα. Description: ERα protein in cellular lysates of skin fibroblasts (western blot). Particulars: for E2-induced increase of ERα: skin fibroblasts pre-treated with inhibitor 1 hr prior to E2, 48 hrs. The format is cell-based, human.
Protocol: Skin fibroblasts (2×10^5 cells per well) were seeded in 35 mm cell culture dishes in DMEM/10% FBS. The following day, the medium was replaced with phenol-red free DMEM (Cellgro) without serum for 24 hours to deprive the cells of estrogen. Fresh phenol-red free DMEM plus 10% charcoal stripped fetal bovine serum (Hyclone, Logan, Utah) was added with one of the following: ethanol as vehicle control (0.1%) or E2 (10 nM; Sigma-Aldrich) for 24 hours (for RNA extraction) or 48 hours (for protein extraction).
Cells were grown to confluency in 35 mm culture dishes. Cells were rinsed with 1×PBS and scraped in sample buffer (20 mM dithiothreitol, 6% SDS, 0.25 M Tris, pH 6.8, 10% glycerol, 10 mM NaF and bromophenyl blue). Samples were separated by electrophoresis on 8% SDS-polacrylamide gels (National Diagnostic, Atlanta, Ga.) and transferred to nitrocellulose membranes. Membranes were blocked with 5% non-fat milk in 1×TBS-Tween20 (0.2 M Tris, 0.14 M NaCl, 0.1% Tween 20), followed by incubation with mouse monoclonal anti-human EDA-fibronectin antibody, rabbit polyclonal anti-human fibronectin antibody, rabbit polyclonal anti-ERα antibody, rabbit polyclonal anti-ERβ antibody (Santa Cruz Biotechnology, Santa Cruz, Calif.), mouse monoclonal anti-human vitronectin, mouse monoclonal anti-β-actin (Sigma-Aldrich), or mouse monoclonal anti-GAPDH (Ambion, Austin, Tex.) in 1×TBS-Tween20 followed by horseradish peroxide-conjugated donkey anti-rabbit IgG (Amersham, Piscataway, N.J.) or donkey anti-mouse IgG (Amersham). Immunoreactive proteins were detected by chemiluminescence (PerkinElmer Life Sciences, Boston, Mass.), followed by autoradiography.
We also examined the effect of the chemical inhibitors on ERα and ERβ.
The subject of data set [4] is fibronectin. Description: ex vivo human skin organ culture: fibronectin immunohistochemistry. Particulars: explanted human skin, 7 days; anti-fibronectin antibody, AEC. How it is done:
6 μm sections of paraffin-embedded skin tissues were de-paraffinized, endogenous peroxidase was quenched using 10% H2O2, and endogenous biotin was blocked using the biotin blocking kit (Dakocytomation, Carpinteria, Calif.). Sections were blocked with 5% serum and incubated with anti-fibronectin antibody followed by secondary antibody. Bound secondary antibody was detected using the AEC Red kit. A light hematoxylin counterstain was used to identify nuclei. Images were taken on a Nikon Eclipse 800 microscope.
as §1

The subject of data set [5] is SSc. Particulars: references (25), (57); cited from earlier work.
The test system of data set [6] is MCF7. Particulars: reference (56); read-out: 1050 in the MCF7 proliferation assay; cited from earlier work.
For data set [7] the following is noted: serum half life; cited from earlier work.

As for `C[C@]12CC[C@@H]3c4ccc(O)cc4CC[C@H]3[C@@H]1CC[C@@H]2O` [E2, 17-β-Estradiol], the “FN mRNA and protein levels” value in data set [1] (healthy twin and SSc fibroblasts, E2 10 nM, 24 hrs (mRNA), 48 hrs (protein)) is listed as “increased”. In addition, the “FN protein levels in the ECM” value in data set [1] (E2 10 nM) is “increased”. In data set [2], the “collagen bundle thickness, ratio compared with vehicle” value is reported as 2.62 ± 0.18 arbitrary unit and the “dermal thickness, ratio compared with vehicle” value came to 1.61±0.12 arbitrary unit. Moreover, the ERα level result in data set [3] (skin fibroblasts stimulated with E2 48 hrs) is reported as “increased”. Further, in data set [4], the “fibronectin expression ex vivo (immunohistochemistry)” value is on record as “induce fibronectin expression”.
On to `CC(=O)Oc1ccc(C(=C2CCCCC2)c2ccc(OC(C)=O)cc2)cc1` [Cyclofenil], for which, in data set [5], the “SSc symptoms / treatment outcome in SSc patients” value is listed as “disappointing results”.
On to `O=c1c(-c2ccc(O)cc2)coc2cc(O)cc(O)c12` [genistein], for which the “FN protein levels in the ECM” value in data set [1] (E2 10 nM) is given as “modestly increased”. Moreover, the “thickening of dermis and collagen bundles” value in data set [2] (vs DMSO vehicle) is “did not induce thickening”.
Regarding `CC/C(=C(\c1ccccc1)c1ccc(OCCN(C)C)cc1)c1ccccc1` [Tamoxifen, tamoxifen], in data set [5], the “SSc symptoms / treatment outcome in SSc patients” value is given as “did not improve SSc symptoms”.
Turning to `Oc1ccc(-c2nc(-c3ccncc3)c(-c3ccc(F)cc3)[nH]2)cc1` [p38 MAPK inhibitor, SB202190], the “E2-mediated increase of FN protein” value in data set [1] is “attenuated”. Moreover, in data set [3], the “E2-induced increase of ERα” value is given as “blocked”.
Regarding `C[C@]12CC[C@@H]3c4ccc(O)cc4C[C@@H](CCCCCCCCC[S+]([O-])CCCC(F)(F)C(F)(F)F)[C@H]3[C@@H]1CC[C@@H]2O` (stereo partly drawn) [ICI 182,780, fulvestrant], the IC50 in data set [6] was about 14 nM. For the same molecule, the “TGF-β-induced FN levels” value in data set [1] (TGF-β 10 ng/ml, ICI 182,780 100 nM) is “did not affect”. Besides, the “effect of E2 on FN mRNA and protein expression in presence of antagonist” value in data set [1] (normal skin fibroblasts, E2 10 nM 48 hrs, ICI 182,780 100 nM, ECM and supernatants) is “blocked the effect of E2”. In addition, the half life entry in data set [7] is given as “approximately forty”. In addition, in data set [2] (E2+ICI), the “effect of estradiol on dermal and collagen bundle thickness in presence of antagonist” value is listed as “blocked the effect of estradiol”.
For `CCCc1c(-c2ccc(O)cc2)nn(-c2ccc(O)cc2)c1-c1ccc(O)cc1` [PPT, propyl-pyrazole-triol], in data set [2], the “collagen bundle thickness, ratio compared with vehicle” value turned out to be 1.84 ± 0.15 arbitrary unit and the “dermal thickness, ratio compared with vehicle” value is on record as 1.54±0.05 arbitrary unit.
`N#CC(=C(/N)Sc1ccccc1N)/C(C#N)=C(\N)Sc1ccccc1N` [MEK inhibitor, U0126]: the “E2-mediated increase of FN protein” value in data set [1] was “more modest effect”. Moreover, the “E2-induced increase of ERα” value in data set [3] is recorded as “blocked”.
